Test results reported in ChEMBL document CHEMBL1909046, “DrugMatrix in vitro pharmacology data”.

Tests used:
[1] = target: Delta-type opioid receptor (Homo sapiens, UniProt P41143); format: cell membranes, HEK293, Membrane; conditions: hek293; also: in other assays of this panel Not Active means under 50% inhibition at 10 µM
[2] = target: T1, Angiotensin-converting enzyme (Oryctolagus cuniculus, UniProt P12822); format: tissue-based, Lung;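 also: enzymatic inhibition of angiotensin-converting enzyme measured with FAPGG as the substrate; in other assays of this panel Not Active means under 50% inhibition at 10 µM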
T1 sequence (P12822 whole entry): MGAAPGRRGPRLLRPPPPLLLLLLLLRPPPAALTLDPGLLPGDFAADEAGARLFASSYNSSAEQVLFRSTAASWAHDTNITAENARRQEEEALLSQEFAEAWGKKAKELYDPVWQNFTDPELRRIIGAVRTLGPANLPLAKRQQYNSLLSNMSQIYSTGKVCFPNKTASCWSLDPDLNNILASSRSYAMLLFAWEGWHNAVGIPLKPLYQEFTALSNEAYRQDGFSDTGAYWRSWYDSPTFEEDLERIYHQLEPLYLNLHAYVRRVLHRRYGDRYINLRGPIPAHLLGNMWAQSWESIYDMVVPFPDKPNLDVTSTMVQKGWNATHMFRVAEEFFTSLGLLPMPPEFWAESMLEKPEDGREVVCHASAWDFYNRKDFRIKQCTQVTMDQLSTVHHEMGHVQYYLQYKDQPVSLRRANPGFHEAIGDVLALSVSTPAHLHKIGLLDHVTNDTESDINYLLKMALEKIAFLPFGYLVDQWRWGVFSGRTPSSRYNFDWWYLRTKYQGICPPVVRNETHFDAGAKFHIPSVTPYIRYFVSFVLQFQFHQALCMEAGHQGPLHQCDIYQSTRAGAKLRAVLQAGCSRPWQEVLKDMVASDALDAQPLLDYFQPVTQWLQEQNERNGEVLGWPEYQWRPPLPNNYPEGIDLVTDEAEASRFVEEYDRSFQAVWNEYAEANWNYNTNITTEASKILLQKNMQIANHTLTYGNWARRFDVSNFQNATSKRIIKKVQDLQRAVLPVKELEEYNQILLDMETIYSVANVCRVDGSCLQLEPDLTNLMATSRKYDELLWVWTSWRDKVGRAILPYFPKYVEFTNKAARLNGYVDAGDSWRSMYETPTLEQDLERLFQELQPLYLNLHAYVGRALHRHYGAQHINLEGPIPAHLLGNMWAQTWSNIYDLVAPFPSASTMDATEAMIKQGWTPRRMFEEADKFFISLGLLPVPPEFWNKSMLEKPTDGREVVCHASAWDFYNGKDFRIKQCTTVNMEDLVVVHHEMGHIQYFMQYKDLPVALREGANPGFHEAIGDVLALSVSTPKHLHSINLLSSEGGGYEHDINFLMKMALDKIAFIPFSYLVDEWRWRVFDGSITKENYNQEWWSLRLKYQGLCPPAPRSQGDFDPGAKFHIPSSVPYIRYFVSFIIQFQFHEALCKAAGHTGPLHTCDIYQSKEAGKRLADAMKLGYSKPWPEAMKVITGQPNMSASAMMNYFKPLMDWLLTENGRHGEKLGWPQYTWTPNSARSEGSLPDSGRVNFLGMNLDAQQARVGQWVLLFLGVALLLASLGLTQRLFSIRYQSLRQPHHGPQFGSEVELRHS

[3] = target: Tyrosine-protein kinase Fyn (Homo sapiens, UniProt P06241); test: biochemical; format: cell-based, Insect cells; conditions: insect cells;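 also: enzymatic inhibition of Fyn kinase activity measured with Poly(Glu:Tyr) as the phosphorylation substrate; in other assays of this panel Not Active means under 50% inhibition at 10 µM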
Chain of Tyrosine-protein kinase Fyn (P06241 whole entry): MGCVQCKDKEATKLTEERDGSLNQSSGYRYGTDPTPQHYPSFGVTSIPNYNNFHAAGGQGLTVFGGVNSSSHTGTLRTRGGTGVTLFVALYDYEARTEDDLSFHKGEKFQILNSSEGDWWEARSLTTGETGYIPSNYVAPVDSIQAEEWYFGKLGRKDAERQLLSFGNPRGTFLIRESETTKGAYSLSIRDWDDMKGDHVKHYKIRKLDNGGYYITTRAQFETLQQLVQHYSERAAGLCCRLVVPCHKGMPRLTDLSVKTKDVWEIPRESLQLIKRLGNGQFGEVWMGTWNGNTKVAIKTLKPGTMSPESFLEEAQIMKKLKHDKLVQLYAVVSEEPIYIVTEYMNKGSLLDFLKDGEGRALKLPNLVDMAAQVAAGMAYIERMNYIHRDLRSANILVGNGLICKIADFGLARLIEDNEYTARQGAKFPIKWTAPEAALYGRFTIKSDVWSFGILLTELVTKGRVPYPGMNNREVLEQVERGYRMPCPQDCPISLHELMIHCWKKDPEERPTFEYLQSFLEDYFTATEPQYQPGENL

[4] = target: T2, C-X-C chemokine receptor type 2 (Homo sapiens, UniProt P25025); format: cell membranes, Membrane; conditions: cho-k1; also: in other assays of this panel Not Active means under 50% inhibition at 10 µM
T2 sequence (P25025 whole entry): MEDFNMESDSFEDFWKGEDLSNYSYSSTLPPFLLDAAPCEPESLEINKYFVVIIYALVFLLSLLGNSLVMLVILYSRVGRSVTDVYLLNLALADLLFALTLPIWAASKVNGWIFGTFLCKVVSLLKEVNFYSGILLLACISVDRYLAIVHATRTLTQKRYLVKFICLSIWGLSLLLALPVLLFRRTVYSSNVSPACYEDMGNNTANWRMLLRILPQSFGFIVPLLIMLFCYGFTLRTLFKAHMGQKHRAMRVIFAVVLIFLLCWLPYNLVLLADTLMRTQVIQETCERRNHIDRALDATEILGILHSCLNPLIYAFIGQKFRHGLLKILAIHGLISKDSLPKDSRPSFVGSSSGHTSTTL

[5] = DRUGMATRIX: Calcium Channel Type L, Dihydropyridine radioligand binding (ligand: [3H] Nitrendipine); format: cell membranes, Rattus norvegicus, Wistar, Cerebral cortex, Membrane; conditions: Not Active = under 50% inhibition at 10 µM
[6] = DRUGMATRIX: Glutamate, NMDA, Phencyclidine radioligand binding (ligand: [3H] TCP); format: cell membranes, Rattus norvegicus, Wistar, Cerebral cortex, Membrane; conditions: Not Active = under 50% inhibition at 10 µM
[7] = target: Tyrosine-protein kinase Lck (Homo sapiens, UniProt P06239); test: DRUGMATRIX: Protein Tyrosine Kinase, LCK enzyme inhibition (substrate: Poly(Glu:Tyr)); format: cell-based, Insect cells; conditions: insect cells; Not Active = under 50% inhibition at 10 µM
Chain of Tyrosine-protein kinase Lck (P06239 whole entry): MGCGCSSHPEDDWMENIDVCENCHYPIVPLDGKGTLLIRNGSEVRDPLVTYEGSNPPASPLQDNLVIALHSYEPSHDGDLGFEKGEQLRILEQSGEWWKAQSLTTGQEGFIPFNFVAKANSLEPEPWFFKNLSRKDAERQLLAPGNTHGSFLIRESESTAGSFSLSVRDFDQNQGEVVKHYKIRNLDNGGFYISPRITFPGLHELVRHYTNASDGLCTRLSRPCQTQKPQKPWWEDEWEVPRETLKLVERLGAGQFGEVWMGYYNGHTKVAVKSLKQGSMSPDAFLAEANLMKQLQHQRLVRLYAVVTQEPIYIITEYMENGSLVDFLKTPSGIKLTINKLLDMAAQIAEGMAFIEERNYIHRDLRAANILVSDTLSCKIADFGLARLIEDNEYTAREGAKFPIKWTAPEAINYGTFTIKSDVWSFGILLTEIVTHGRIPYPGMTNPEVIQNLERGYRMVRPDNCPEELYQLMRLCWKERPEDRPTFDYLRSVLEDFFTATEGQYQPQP

Chain of Delta-type opioid receptor (P41143 whole entry): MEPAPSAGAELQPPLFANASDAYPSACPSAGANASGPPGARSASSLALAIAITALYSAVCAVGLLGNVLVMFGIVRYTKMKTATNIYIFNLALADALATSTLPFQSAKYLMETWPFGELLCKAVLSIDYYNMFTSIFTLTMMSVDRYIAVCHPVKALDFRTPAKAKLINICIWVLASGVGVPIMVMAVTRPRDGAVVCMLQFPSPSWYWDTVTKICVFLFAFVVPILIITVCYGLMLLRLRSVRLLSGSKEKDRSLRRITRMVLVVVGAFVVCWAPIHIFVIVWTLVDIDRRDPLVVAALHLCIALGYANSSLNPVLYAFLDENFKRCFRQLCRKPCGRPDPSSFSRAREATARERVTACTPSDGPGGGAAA

SODIUM NITROPRUSSIDE
Not Active: IC50 [1] | Ki [1] | IC50 [2] | Ki [2] | IC50 [3] | Ki [3] | IC50 [4] | Ki [4] | IC50 [5] | Ki [5] | IC50 [6] | Ki [6] | IC50 [7] | Ki [7]

CO[C@H]1/C=C/O[C@@]2(C)Oc3c(C)c(O)c4c(O)c(c(/C=N/N5CCN(C)CC5)c(O)c4c3C2=O)NC(=O)/C(C)=C\C=C\[C@H](C)[C@H](O)[C@@H](C)[C@@H](O)[C@@H](C)[C@H](OC(C)=O)[C@@H]1C [RIFAMPIN]
Not Active: IC50 [1] | IC50 [2] | IC50 [3] | IC50 [4] | IC50 [5] | Ki [5] | IC50 [6] | Ki [6] | IC50 [7]

Cc1oncc1C(=O)Nc1ccc(C(F)(F)F)cc1 [LEFLUNOMIDE]
Not Active: IC50 [1] | IC50 [2] | IC50 [3] | IC50 [4] | IC50 [5] | Ki [5] | IC50 [6] | Ki [6] | IC50 [7]

N#CC(C#N)=Cc1ccc(O)c(O)c1 [TYRPHOSTIN 23]
Not Active: IC50 [1] | IC50 [2] | IC50 [3] | IC50 [4] | IC50 [5] | Ki [5] | IC50 [6] | Ki [6] | IC50 [7]
